Test results published in paper PMC11357161, “Phytochemical Analysis, Biological Activities, and Docking of Phenolics from Shoot Cultures of Hypericum perforatum L. Transformed by Agrobacterium rhizogenes” (Molecules, 2024).
Marks after values point to notes of the source that are not given here.

What was measured:
Format in all cases: biochemical
α-amylase (α-AM) = α-amylase (α-AM) (Aspergillus oryzae, UniProt P0C1B3); assay: α-AM inhibitory activity in vitro; conditions: concentration that inhibits 25% of enzyme activity; mean ± SD, three replicates
Method: (§1) Shoot methanolic extracts were evaporated in a freeze-dryer (Labconco, Kansas City, MO, USA), and dry extracts were dissolved in 50% dimethyl sulfoxide. […] The protocols for MAO-A, AChE, BChE, TYR, α-AM, α-GL, PL, and CHE inhibitory activities were presented in our previous studies. […] Three replicates were used for all enzyme-inhibitory tests.

[1] = target: T1, monoamine oxidase-A (MAO-A) (Homo sapiens, UniProt P21397); assay: MAO-A inhibitory activity in vitro
T1 sequence (P21397 1-527): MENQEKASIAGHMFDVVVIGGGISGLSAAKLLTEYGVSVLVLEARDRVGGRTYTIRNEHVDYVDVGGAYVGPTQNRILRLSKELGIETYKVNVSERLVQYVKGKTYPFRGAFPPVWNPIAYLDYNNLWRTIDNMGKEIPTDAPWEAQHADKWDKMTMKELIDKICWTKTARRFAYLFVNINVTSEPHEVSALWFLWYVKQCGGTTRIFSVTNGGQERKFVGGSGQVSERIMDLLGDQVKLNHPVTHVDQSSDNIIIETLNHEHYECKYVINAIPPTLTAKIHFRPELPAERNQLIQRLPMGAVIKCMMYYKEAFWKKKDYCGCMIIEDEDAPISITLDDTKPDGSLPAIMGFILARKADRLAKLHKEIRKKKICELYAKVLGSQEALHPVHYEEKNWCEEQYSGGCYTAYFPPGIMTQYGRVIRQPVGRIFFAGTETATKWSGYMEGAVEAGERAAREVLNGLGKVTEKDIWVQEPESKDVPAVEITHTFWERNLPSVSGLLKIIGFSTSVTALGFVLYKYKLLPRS
Method: as §1

[2] = target: T2, cholesterol esterase (CHE) (Homo sapiens, UniProt P19835); assay: CHE inhibitory activity in vitro; conditions: concentration that inhibits 50% of enzyme activity; mean ± SD, three replicates
T2 sequence (P19835 21-753): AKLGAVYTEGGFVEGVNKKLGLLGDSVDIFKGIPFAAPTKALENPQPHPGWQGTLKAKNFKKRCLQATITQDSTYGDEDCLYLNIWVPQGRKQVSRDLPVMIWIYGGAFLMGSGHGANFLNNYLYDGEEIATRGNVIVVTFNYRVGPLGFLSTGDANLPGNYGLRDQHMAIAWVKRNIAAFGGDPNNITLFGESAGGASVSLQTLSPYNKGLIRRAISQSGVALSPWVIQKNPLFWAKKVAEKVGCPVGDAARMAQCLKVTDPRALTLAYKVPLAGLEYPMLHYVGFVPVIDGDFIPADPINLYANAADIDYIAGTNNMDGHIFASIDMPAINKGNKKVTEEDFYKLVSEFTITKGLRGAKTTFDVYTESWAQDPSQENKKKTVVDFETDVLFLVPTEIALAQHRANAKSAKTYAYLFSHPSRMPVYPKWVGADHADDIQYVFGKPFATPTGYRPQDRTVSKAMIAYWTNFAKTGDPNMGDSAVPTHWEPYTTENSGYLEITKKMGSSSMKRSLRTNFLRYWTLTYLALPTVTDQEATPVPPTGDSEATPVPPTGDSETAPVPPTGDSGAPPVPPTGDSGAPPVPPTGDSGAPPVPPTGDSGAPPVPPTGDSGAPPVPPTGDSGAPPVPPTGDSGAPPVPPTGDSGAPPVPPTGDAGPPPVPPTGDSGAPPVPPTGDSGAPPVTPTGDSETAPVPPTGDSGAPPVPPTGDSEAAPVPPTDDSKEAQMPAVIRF
Method: as §1

Q: Which “α-AM (IC25)” value (α-amylase (α-AM)) does the source give for `C[C@H]1O[C@H](O[C@H]2[C@H](O)[C@@H](O)[C@@H](O[C@H]3[C@H](O)[C@@H](O)C(O)O[C@@H]3CO)O[C@@H]2CO)[C@H](O)[C@@H](O)[C@@H]1N[C@H]1C=C(CO)[C@@H](O)[C@H](O)[C@H]1O` (stereo partly drawn) [Acarbose] here?
A: 6.77 ± 0.76 ^a µg·mL^−1

Q: `Oc1ccc(Cl)cc1Cl` [DCP, 2,4-dichlorophenol] was tested. Which IC50 [1] did it give?
A: 226 µM

Q: `CCC(C)(C)C(=O)O[C@H]1C[C@@H](C)C=C2C=C[C@H](C)[C@H](CC[C@@H]3C[C@@H](O)CC(=O)O3)[C@H]21` [Simvastatin] was tested. Which IC50 [2] did it give?
A: 383 µM
